Measured values reported in patent US20260234147A1 (priority 2023, published 2026).
Read-outs that look alike come from different tables or passages of the source.

Key:
hMOR = hMOR (Homo sapiens, UniProt P35372); assay: Radioligand binding assay (Eurofins Cerep), [3H]DAMGO displacement; details: read-out: MOR Ki ± SEM
α2C adrenergic receptor = biological target: T1, α2C adrenergic receptor (Homo sapiens, UniProt P18825); assay: Radioligand binding assay (Eurofins Cerep), [3H]RX 821002 displacement; details: Table B1, mean ± SEM, 3 independent experiments
T1 construct: Eurofins Cerep (contract screening)
T1 sequence (P18825 1-462): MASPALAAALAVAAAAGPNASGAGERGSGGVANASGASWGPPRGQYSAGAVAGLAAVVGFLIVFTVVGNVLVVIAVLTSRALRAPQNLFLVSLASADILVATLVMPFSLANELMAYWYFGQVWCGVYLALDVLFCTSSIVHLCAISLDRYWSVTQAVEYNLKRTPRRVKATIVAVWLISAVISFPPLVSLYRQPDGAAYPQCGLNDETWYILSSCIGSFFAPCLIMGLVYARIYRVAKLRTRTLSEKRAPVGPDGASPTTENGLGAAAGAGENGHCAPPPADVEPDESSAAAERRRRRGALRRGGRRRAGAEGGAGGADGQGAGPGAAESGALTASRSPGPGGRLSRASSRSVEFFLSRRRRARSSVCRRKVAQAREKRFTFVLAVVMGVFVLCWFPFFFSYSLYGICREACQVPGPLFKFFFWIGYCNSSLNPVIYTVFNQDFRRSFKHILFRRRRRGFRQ

α2A adrenergic receptor = biological target: T2, α2A adrenergic receptor (Homo sapiens, UniProt P08913); assay: as above
T2 construct: Eurofins Cerep (contract screening)
T2 sequence (P08913 1-465): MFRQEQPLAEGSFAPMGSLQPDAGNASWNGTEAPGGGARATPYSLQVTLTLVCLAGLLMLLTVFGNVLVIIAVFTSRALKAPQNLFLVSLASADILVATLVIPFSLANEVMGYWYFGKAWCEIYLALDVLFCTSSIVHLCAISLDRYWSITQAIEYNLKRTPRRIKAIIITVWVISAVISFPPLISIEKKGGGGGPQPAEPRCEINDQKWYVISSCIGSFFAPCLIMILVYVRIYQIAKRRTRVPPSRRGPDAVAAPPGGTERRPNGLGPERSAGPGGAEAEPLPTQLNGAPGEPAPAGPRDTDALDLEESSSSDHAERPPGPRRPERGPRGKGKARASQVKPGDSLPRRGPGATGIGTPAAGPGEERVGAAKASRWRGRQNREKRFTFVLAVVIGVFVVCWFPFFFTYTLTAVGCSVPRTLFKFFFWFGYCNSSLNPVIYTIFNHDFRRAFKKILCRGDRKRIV

hDOR = hDOR (Homo sapiens, UniProt P41143); assay: Radioligand binding assay (Eurofins Cerep), [3H]DADLE displacement; details: Table B1′; read-out: DOR Ki ± SEM
Chain of hDOR (P41143 whole entry): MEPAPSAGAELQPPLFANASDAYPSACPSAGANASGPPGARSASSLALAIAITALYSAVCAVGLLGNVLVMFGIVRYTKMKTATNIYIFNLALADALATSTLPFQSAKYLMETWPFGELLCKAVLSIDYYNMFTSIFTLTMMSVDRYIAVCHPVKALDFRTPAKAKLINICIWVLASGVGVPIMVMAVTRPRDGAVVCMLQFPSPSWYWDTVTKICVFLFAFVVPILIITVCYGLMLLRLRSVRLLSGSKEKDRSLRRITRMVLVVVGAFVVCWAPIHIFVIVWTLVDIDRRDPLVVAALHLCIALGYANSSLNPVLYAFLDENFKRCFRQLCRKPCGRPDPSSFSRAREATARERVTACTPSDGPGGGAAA

hKOR = hKOR (Homo sapiens, UniProt P41145); assay: Radioligand binding assay (Eurofins Cerep), [3H]U69,593 displacement; details: Table B1′; read-out: KOR Ki ± SEM
Chain of hKOR (P41145 whole entry): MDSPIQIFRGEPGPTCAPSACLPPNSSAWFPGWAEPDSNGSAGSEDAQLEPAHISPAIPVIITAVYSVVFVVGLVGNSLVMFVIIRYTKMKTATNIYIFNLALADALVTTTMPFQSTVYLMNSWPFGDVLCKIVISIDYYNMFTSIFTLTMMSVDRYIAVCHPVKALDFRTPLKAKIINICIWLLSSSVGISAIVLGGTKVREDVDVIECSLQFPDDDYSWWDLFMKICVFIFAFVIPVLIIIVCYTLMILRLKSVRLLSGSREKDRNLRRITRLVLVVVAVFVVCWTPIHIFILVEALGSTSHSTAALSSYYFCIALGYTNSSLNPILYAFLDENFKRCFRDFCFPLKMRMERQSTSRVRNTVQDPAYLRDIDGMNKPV

[1] = Table B1, mean ± SEM, 3 independent experiments
[2] = alpha2A Ki ± SEM (nM), Table B1′

Chain of hMOR (P35372 whole entry): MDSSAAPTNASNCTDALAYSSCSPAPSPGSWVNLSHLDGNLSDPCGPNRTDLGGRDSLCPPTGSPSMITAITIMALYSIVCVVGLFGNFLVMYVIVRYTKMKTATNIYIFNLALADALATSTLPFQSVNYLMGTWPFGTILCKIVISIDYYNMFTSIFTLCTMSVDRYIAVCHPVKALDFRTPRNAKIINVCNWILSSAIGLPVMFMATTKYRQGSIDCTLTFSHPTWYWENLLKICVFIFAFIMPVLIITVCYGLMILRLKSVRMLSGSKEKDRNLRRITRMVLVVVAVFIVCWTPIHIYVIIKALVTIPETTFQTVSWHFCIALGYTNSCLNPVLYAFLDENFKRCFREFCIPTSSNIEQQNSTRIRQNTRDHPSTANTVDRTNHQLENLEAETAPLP

## COC(=O)CC1CCN2CCC(O)(c3ccccc3OC)CC2C1 (stereo not drawn) [SG-01-006, Methyl 2-(8-hydroxy-8-(2-methoxyphenyl)octahydro-1H-quinolizin-2-yl)acetate]
hMOR; [1]
  Ki: > 10 µM
α2C adrenergic receptor; read-out: Alpha2C Ki ± SEM
  Ki: 139 ± 20.3 nM
α2A adrenergic receptor; Alpha2A Ki ± SEM (nM), Table B1, mean ± SEM, 3 independent experiments
  Ki: 376 ± 72.2 nM

## COC(=O)CC1CCN2CCC(c3ccccc3OC)CC2C1 (stereo not drawn) [SG-01-008, Methyl 2-(8-(2-methoxyphenyl)octahydro-1H-quinolizin-2-yl)acetate]
hMOR; [1]
  Ki: > 10 µM
α2C adrenergic receptor; Alpha2C Ki ± SEM (nM)
  Ki: 13.6 ± 0.828 nM
α2A adrenergic receptor; Table B1, mean ± SEM, 3 independent experiments, read-out: Alpha2A Ki ± SEM
  Ki: 27.9 ± 3.05 nM

## COC(=O)C=C1CCN2CCC(O)(c3ccccc3OC)CC2C1 (stereo not drawn) [drawing 167]
hMOR; Table B1′
  Ki: > 10 µM
hDOR
  Ki: 2.94 ± 2.55 µM
α2A adrenergic receptor; [2]
  Ki: 227 ± 37 nM
hKOR
  Ki: > 10 µM

## COC(=O)CC1CCN2CCC(c3ccccc3OC)CC2C1 (stereo not drawn) [drawing 171]
hMOR; Table B1′
  Ki: > 10 µM
hDOR
  Ki: > 10 µM
α2A adrenergic receptor; Table B1′, read-out: alpha2A Ki ± SEM
  Ki: 24 ± 3 nM
hKOR
  Ki: > 10 µM

## COC(=O)CC1CCN2CCC(O)(c3ccccc3)CC2C1 (stereo not drawn) [drawing 173]
hMOR; Table B1′
  Ki: 8.61 ± 2.53 µM
hDOR
  Ki: > 10 µM
α2A adrenergic receptor; [2]
  Ki: 129 ± 49 nM
hKOR
  Ki: 3.6 ± 1.08 µM

## COC(=O)C=C1CCN2CCC(O)(c3ccccc3)CC2C1 (stereo not drawn) [drawing 176]
hMOR; Table B1′
  Ki: > 10 µM
hDOR
  Ki: > 10 µM
α2A adrenergic receptor; [2]
  Ki: 155 ± 65 nM
hKOR
  Ki: 7.66 ± 2.67 µM

## COC(=O)C=C1CCN2CCC(O)(c3cccc(OC)c3)CC2C1 (stereo not drawn) [drawing 179]
hMOR; Table B1′
  Ki: > 10 µM
hDOR
  Ki: > 10 µM
α2A adrenergic receptor; [2]
  Ki: 37 ± 3 nM
hKOR
  Ki: > 10 µM

## COC(=O)C=C1CCN2CCC(O)(c3cccc(OC)c3)CC2C1 (stereo not drawn) [drawing 180]
hMOR; Table B1′
  Ki: > 10 µM
hDOR
  Ki: > 10 µM
α2A adrenergic receptor; [2]
  Ki: 44 ± 5 nM
hKOR
  Ki: > 10 µM
